From patent US20020068838A1, “AROMATIC AMIDES, THEIR PREPARATION PROCESS AND THEIR USE AS PESTICIDES” (priority 1997, published 2002) come the findings set out here.

Common to all, as to format: in vivo
One experiment deals with Heliothis virescens. Description: Study on Heliothis virescens (artificial medium surface treatment). To be noted: starting from a dose of 300 ppm; neonate larva; after seven days; 25 C. How it is done: The product was dissolved at the desired concentration in an acetone-water mixture (50-50). 50 μl of solution were deposited on the surface of a small well containing approximately 2 grams of plant-based artificial medium. One neonate larva of Heliothis virescens was then introduced into each well, which was sealed with a sheet of cellophane. The tests were kept at a temperature of 25 C., with a photoperiod of twelve hours. The mortality of the larvae was checked after seven days.

The subject of another experiment is Spodoptera littoralis. Put plainly: Study on Spodoptera littoralis (haricot leaf dip test). To be noted: starting from a dose of 300 ppm, after seven days, 25 C. The method, then: The product was dissolved at the desired concentration in an acetone-water mixture (50-50). Haricot leaves (Phaseolus vulgaris, var. […]) were immersed for five seconds in the solution, then left to dry in a Petri dish for one hour. Ten larvae of Spodoptera littoralis were then added to each dish. These were kept at a temperature of 25 C., with a photoperiod of twelve hours. After seven days, the mortality of the larvae was checked and the foliar surface consumed was evaluated.

The test system of experiment [1] is Leptinotarsa decemlineata. Description: Study on Leptinotarsa decemlineata (aubergine foliar disk dip test). The conditions noted are these: starting from a dose of 300 ppm; larvae (3rd stage); after four days; 25 C. The method, then:
The product was dissolved at the desired concentration in an acetone-water mixture (50-50). Foliar disks of aubergine were immersed in the solution, then left to dry for one hour. Ten larvae (3rd stage) were added into a Petri dish each containing a foliar disk. These were kept at a temperature of 25 C. After four days, the mortality of the insects was checked.

For the next experiment, the system named is Phaedon cochleariae. Put plainly: Study on Phaedon cochleariae (foliar disk dip test, Chinese cabbage). The conditions noted are these: starting from a dose of 300 ppm; adults; after seven days; 25 C. How it is done: The product was dissolved at the desired concentration in an acetone-water mixture (50-50). Foliar disks of Chinese cabbage (Brassica pekinensis) were immersed for five seconds in the solution, then left to dry for one hour. Ten adults (a mixture of males and females) were added into a Petri dish containing a foliar disk each. These were kept at a temperature of 25 C., with a photoperiod of twelve hours. After seven days, the mortality of the insects was checked and the foliar surface consumed was evaluated.

In the case of `Cc1ccccc1NC(=O)c1ccc(CC=Cc2ccc(Cl)c(Cl)c2)cc1` [Example 7, 4-[3-(3,4-dichlorophenyl)-2-propenyl]-N-(2-methylphenyl)-benzamide], the “activity (mortality of the larvae)” value in the experiment with Heliothis virescens is reported as “good activity”. The “activity (mortality of the larvae and foliar surface consumed)” value in the experiment on Spodoptera littoralis is given as “good activity”.
As to `Cc1ccccc1NC(=O)c1ccc(CC=C(Cl)c2ccc(Cl)c(Cl)c2)cc1` [Example 6, 4-[3-chloro-3-(3,4-dichlorophenyl)-2-propenyl]-N-(2-methylphenyl)-benzamide], the “activity (mortality of the larvae)” value in the experiment on Heliothis virescens was “good activity”. In addition, the “activity (mortality of the larvae and foliar surface consumed)” value in the experiment on Spodoptera littoralis is recorded as “good activity”. Moreover, the “activity (mortality of the insects)” value in experiment [1] is “very interesting activity”. Moreover, in the experiment on Phaedon cochleariae, the “activity (mortality of the insects and foliar surface consumed)” value was “good activity”.
Consider `Cc1ccccc1NC(=O)c1ccc(CC(F)Cc2ccc(Cl)c(Cl)c2)cc1` (stereo not drawn) [Example 1, 4-[3-(3,4-dichlorophenyl)-2-fluoropropyl]-N-(2-methylphenyl)-benzamide], for which the “activity (mortality of the larvae)” value in the experiment with Heliothis virescens was “good activity”. In the experiment on Spodoptera littoralis, the “activity (mortality of the larvae and foliar surface consumed)” value is recorded as “good activity”.
`Cc1ccccc1NC(=O)c1ccc(CC(F)=Cc2ccc(Cl)c(Cl)c2)cc1` [Example 2]: the “activity (mortality of the larvae)” value in the experiment on Heliothis virescens is “good activity”. The “activity (mortality of the larvae and foliar surface consumed)” value with Spodoptera littoralis is given as “good activity”.
Take `CC(=CCc1ccc(C(=O)Nc2ccccc2C)cc1)c1ccc(Cl)c(Cl)c1` [Example 5, 4-[3-(3,4-dichlorophenyl)-2-butenyl]-N-(2-methylphenyl)-benzamide]: the “activity (mortality of the larvae)” value in the experiment with Heliothis virescens is listed as “good activity”. Besides, the “activity (mortality of the larvae and foliar surface consumed)” value with Spodoptera littoralis is on record as “good activity”.
